Laboratory results reported in patent publication US11035008B2, “Biomarkers for cancer” (BERGENBIO ASA, priority 2015, dated 2021).
“Also recorded” adds a separate entry of the source.

Columns and labels:
Type in all cases: cell-based, human
pAxl(Y779) = pAxl(Y779) by flow cytometry in MOLM13 cells (Example 2)
Protocol: (§1) Staining of Cells for Flow Cytometry, General Protocol: • Live cells were centrifuged at 300 G for 5 minutes, washed once with PBS and centrifuged again. Cells were then fixed in 4% PFA in PBS for 10 minutes at 37° C., and resuspended in PBS. Unless processed immediately, samples were at this point stored in PBS at 4° C. (up to three weeks) or at −80° C. (for long-term storage). If intracellular epitopes were stained, cells were permebealized in 90% MeOH for 30 minutes on ice. Unless processed immediately, samples were also be stored in 90% MeOH at −20° C. for up to two months. • Further staining procedure (permebealized or non-permebealized cells): • Cells were washed 1× in PBS and blocked in blocking buffer; either PBS+0.5% BSA or PBS+1:1000 Octagam (5 mg/ml) for 15 minutes at room temperature. Thereafter, cells were incubated with primary AB at the indicated dilutions in incubation buffer (IB, PBS+0.5% BSA) for 1 hour at room temperature. Cells were then washed 3× with IB and incubated with secondary AB (conjugated to a fluorescent flurophore) at 1:1000 dilution in IB for 30 minutes at room temperature. Finally, cells were washed 3× in IB and resuspended in PBS. Cells were analyzed immediately, or stored for up to 24 hours at 4° C. before analysis. • Analysis of cells was done on a BD LSR Fortessa or a BD C6 Accuri flow cytometer, and further processing was done using FlowJo v.7.6. • All incubation steps (but not storage) were done on a spinning wheel or gentle shaker.
MOLM13 cells were cultured in starvation medium (RPMI, 0.1% FBS) over night and treated with BGB324 at 3 μM for a total of 40 minutes. […] Cells were co-stained with pAxl(Y779) and tAxl (1H12) antibodies. […] When gating for Axl-expressing cells, we saw that the reduction of pAxl signal was only seen in Axl-positive cells, showing that the pAxl antibody appears to be Axl-specific (see FIG. 3).
pAxl was further assessed pAxl by, in the same experimental conditions, examining for phosphorylation of Akt (see above, and FIG. 2), comparing starvation with non-starved cells, and using MOLM13 wt, shAxl and shLuc (cells were co-stained with antibodies for both pAkt and pAxl). MOLM13shAxl were used as a negative control, to separate between background binding of the antibodies and the “real” pAxl-signal. In cells that were not starved, only a slight inhibition of pAxl after treatment was found (around 20% at 3 μM BGB324 dose).

totPHGDH = experiment: Total PHGDH in AML cell panel, long-term treatment, flow cytometry
Protocol: as §1
(§2) The diversity of AML cells and their responses was investigated using a panel of AML cell lines and assessing their responses after BGB324-treatment.
(§3) Long-term treatment was done in complete medium, without starvation. The responders were treated with 0.05, 0.1 or 0.3 μM BGB324, whereas the non-responders were treated with only a single dose of 2.5 μM BGB324. The cells were fixed after 24, 48 or 72 hours, and the samples were stored in 90% MeOH at −20° C. until all samples were harvested, and stained for flow at the same time.

pPLCγ1 = pPLCγ1 in AML cell panel, short term treatment, flow cytometry
Protocol: as §1, §2
When investigating phospho-markers, the cells were starved overnight in the appropriate growth medium containing 0.1% FBS, pre-treated with BGB324 at 0.5 and 1 μM for one hour, and stimulated with 10% FBS for 20 minutes (to induce phosphorylation, with BGB324 present). Cells were then fixed and stained for flow cytometric analyses.

Axl(Y779) = experiment: pAxl(Y779) in blood of healthy volunteers treated ex vivo; conditions: blood of two healthy volunteers, 1 μM, 30 minutes ex vivo
Protocol: Staining of Blood for Flow Cytometry, General Protocol: • Human blood from healthy donors was collected in the presence of sodium citrate and mixed with 20 volumes of pre-warmed BD phosflow lyse/fix buffer (diluted to 1× in destilled water), followed by incubation in 37° C. water bath for 10 minutes. Cells were spun at 500 g for 8 minutes and washed once with PBS. • Cells were permebilized by adding 70% MeOH followed by 30 min incubation on ice. Unless processed immediately, samples were at this point stored in MeOH at −20° C. for up to 4 weeks. • Staining of permeabilized cells: • Cells were spun at 600 g, washed twice and resuspended in IB. Cells were aliquoted into volums corresponding to 100 ul collected blood (before dilution), and stained as described above (section two in “Staining of cells for flow cytometry, general protocol”). • All washing and incubation steps were done on a spinning wheel or gentle shaker.
Blood samples from BGB324-treated individuals were not available, so BGB324-treatment was simulated by incubating fresh unfixed blood samples with 1 μM BGB324 for 30 minutes before fixation. Thereafter, samples were fixed, permebealized, and stained for flow with pAxl and pAkt antibodies to examine whether we could see a response to BGB324-treatment in these biomarkers (see FIG. 7). Phosphatase-treated cells were included as a negative staining control. […]

totPLCγ1 = experiment: Total PLCγ1 in AML cell panel, long-term treatment, flow cytometry
Protocol: as §1, §2, §3

totSLFN11 = experiment: Total SLFN11 in AML cell panel, long-term treatment, flow cytometry
Protocol: as §1, §2, §3

For `Nc1nc(Nc2ccc3c(c2)CC[C@@H](N2CCCC2)CC3)nn1-c1cc2c(nn1)-c1ccccc1CCC2` [BGB324, 1-(6,7-dihydro-5H-benzo[6,7]cyclohepta[1,2-c]pyridazin-3-yl)-N3-((7-(S)-pyrrolidin-1-yl)-6,7,8,9-tetrahydro-5H-benzo[7]annulene-2-yl)-1H-1,2,4-triazole-3,5-diamine], the inhibition at 3 µM (pAxl(Y779); Homo sapiens, MOLM-13, MOLM13 not starved (wt, shLuc, shAxl same)) was about 20%, the “inhibition of pAxl” value (pAxl(Y779); MOLM13 shAxl, pre-starved, 3 μM) was “approximately 20%” and the “pAxl(Y779)” value (pAxl(Y779); MOLM13 starved, 3 μM, 40 minutes) was “slight decrease in pAxl; also recorded: modest reduction of pAxl”. The “total reduction of pAxl” value (pAxl(Y779); MOLM13 wt and shLuc, pre-starved, 3 μM) was 40%, the PHGDH expression (totPHGDH; Kasumi, 2.5 μM, significant at 24 hours) was “increase in PHGDH expression” and the “total protein expression of PHGDH” value (totPHGDH; MOLM13, 24, 48 and 72 hours) was “no significant changes”. The “total protein expression of PHGDH” value (totPHGDH; Mv4-11, 0.3 uM, 24 and 72 hours) was “significant reduction of PHGDH”, the PHGDH expression (totPHGDH; OCI-AML5, 2.5 μM, significant in all time points) was “increase in PHGDH expression” and the pPLCγ (pPLCγ1; Kasumi, 1 hour) was “No response in PLCγ”. For the same compound, the pPLCγ (pPLCγ1; MOLM13, all treatment doses, 1 hour) was “significantly reduced”, the pPLCγ (pPLCγ1; Mv4-11, all treatment doses, 1 hour) was “significantly reduced” and the pPLCγ (pPLCγ1; OCI-M1, 1 hour) was “No response in PLCγ”. The “reduction of pAxl(Y779)” value (Axl(Y779); gated Axl-positive cells) was about 20%, the “reduction of pAxl” value (Axl(Y779); whole live cell population) was “around 20%” and the PLCγ1 expression (totPLCγ1; Kasumi, 2.5 μM, 48 and 72 hours) was “significant increase of PLCγ1 expression”. For the same compound, the “total protein expression of PLCγ1” value (totPLCγ1; MOLM13, 0.3 μM, 24 hours) was “slight but significant reduction”, the “total protein expression of PLCγ1” value (totPLCγ1; Mv4-11, 0.3 μM, 24 and 72 hours) was “significant reduction” and the PLCγ1 expression (totPLCγ1; OCI-AML5, 2.5 μM, only 72 hours) was “significant increase of PLCγ1 expression”. For the same compound, the SLFN11 expression (totSLFN11; Kasumi, 2.5 μM, 24 and 48 hours) was “no significant differences”, the SLFN11 expression (totSLFN11; Kasumi, 2.5 μM, 72 hours) was “significant increase of SLFN11 expression” and the “total protein expression of SLFN11” value (totSLFN11; MOLM13, 0.3 μM, 24, 48 and 72 hours) was “significant reduction”. For the same compound, the “total protein expression of SLFN11” value (totSLFN11; Mv4-11, 0.1 uM, 72 hours) was “significantly reduced”, the “total protein expression of SLFN11” value (totSLFN11; Mv4-11, 0.3 μM, 24, 48 and 72 hours) was “significant reduction” and the SLFN11 expression (totSLFN11; OCI-AML5, 2.5 μM, 24 and 48 hours) was “no significant differences”. For the same compound, the SLFN11 expression (totSLFN11; OCI-AML5, 2.5 μM, 72 hours) was “significant increase of SLFN11 expression”.
